Test results taken from patent EP1452605A1, “Method for determining antiviral activity” (Universiteit Utrecht Holding B.V., priority 2003, dated 2004).

Key:
HIV-1Ba-L [1] = assay: HIV-1 infection of PBMC, p24-core antigen ELISA; assay type: cell-based
Protocol: To correct for the input virus, an extra control consisting of medium containing the same amount of input virus as added to the cells was included in the experiment. The amount of p24 in this control was subsequently subtracted from the p24 values of the samples in order to obtain the exact amount of p24 produced by the cells. p24-core antigen quantification by ELISA After 2 or 7 days incubation, samples of the supernatants were collected, inactivated by addition of Empigen (Calbiochem, La Jolla, CA, USA) and by heat inactivation at 56°C for 30 min. p24-core antigen concentration was determined by an enzyme linked immunoabsorbent assay (ELISA) (AMPAK™, DAKO, Cambridgeshire, UK) as described previously ^18,19. The optical density values were converted into p24 concentration (ng/ml) with the use of a calibration curve made by serial dilutions of recombinant p24 protein (NIBSC, UK) that was submitted to the same treatment as the samples.
(§1) To correct for the input virus, an extra control consisting of medium containing the same amount of input virus as added to the cells was included in the experiment. The amount of p24 in this control was subsequently subtracted from the p24 values of the samples in order to obtain the exact amount of p24 produced by the cells.
(§2) After 7 days incubation, samples of the supernatants were collected, inactivated by addition of Empigen (Calbiochem, La Jolla, CA, USA) and by heat inactivation at 56°C for 30 min. p24-core antigen concentration was determined by an ELISA (AMPAK™, DAKO, Cambridgeshire, UK) as described previously ^39,40. The optical density values were converted into p24 concentration (ng/ml) with the use of a calibration curve made by serial dilutions of recombinant p24 protein (NIBSC, UK) that was submitted to the same treatment as the samples.
as §1
as §2, with “enzyme linked immunoabsorbent assay (ELISA)” for “ELISA”, “15,16.” for “^39,40.”

[2] = Cellular viability assay (MTT) of PBL; assay type: cell-based; conditions: human, 7 days, read-out: TC50
HIV-1 RT = HIV-1 RT (Human immunodeficiency virus type 1 group M subtype B, UniProt P04585); assay: Cell-free RT assay (primer extension); assay type: biochemical
Protocol: The HIV-1 RNA template (positions +1 to +368, with +1 being the capped G residue) was synthesized in vitro with T7 RNA polymerase as described previously ^27. In the reverse transcription assay, 10 ng of the RNA template was incubated with 1.5 µg calf liver tRNA ([…] total tRNA, of which approximately 1.2 pmol tRNA^lys3, Boehringer) or 20 ng of a DNA primer complementary to the primer binding site (PBS) (positions +182 to +202) in 12 µl annealing buffer (83 mM Tris-HCl pH 7.5, 125 mM KCl) at 85 °C for 2 min and 65 °C for 10 min, followed by cooling to room temperature over a 1h period. Reverse transcription was initiated by the addition of 6 µl RT buffer (9 mM MgCl2, 30 mM DTT, 150 µg/ml actinomycine D, 30 µM dATP, dGTP and dTTP and 1.5 µM dCTP), 0.5 µl [α-^32P]dCTP and 0.5 U HIV-1 RT (MRC) in the presence or absence of APHS (10, 30, 300 and 1000 µM) or 10% ethanol. The reaction was incubated for 30 min at 37 °C. The cDNA product was precipitated in 0.3 M sodiumacetate, pH 5.2 and 80% ethanol at-20°C, dissolved in formamide loading buffer and analyzed on a denaturing 6% polyacrylamide-urea sequencing gel.

FIV UT-113 = assay: FIV infection of CrFK cells, FIV p24 ELISA; assay type: cell-based, Feline immunodeficiency virus (FIV); conditions: 100 to 0.024 µM, p24 after 6 days
Protocol: After 6 days of incubation FIV replication was measured by quantification of the p24 viral core antigen in the cell culture supernatant by an FIV p24 enzyme-linked immunoabsorbent assay as described previously ^19.

HEp-2 cells = assay type: cell-based, Human
Protocol: HEp-2 cells were seeded in 96-wells plates in the presence of APHS for 4, 5 and 6 days. Concentrations of HEp-2 cells were determined by microscopic observation in order to have a confluent monolayer at the day of measurement. Afterwards a cellular viability assay was performed on these cells.

MHV-A59 = assay: MHV infection of mouse L cells, CPE scoring; assay type: cell-based, Mouse hepatitis virus (MHV); conditions: 24h, 143 to 0.009 µM
Protocol: After 24h, the cytopatic effect (CPE) of the virus and the cytotoxicity of the compounds were scored by microscopic observation.

[3] = Cellular viability assay (MTT) of HFF overlayed with BHK cells; assay type: cell-based, Human; conditions: hff and bhk cells; read-out: TC50 (the source's name)
HFF and BHK cells = assay: as above; assay type: cell-based, Human
in vitro = conditions: human, pbmc
184V = assay: Drug susceptibility assay (cell-killing MTT assay) in MT-2 cells; conditions: Human immunodeficiency virus 1, MT2, 120 h
Protocol: The cells were maintained at 37°C, 5% CO2. One day prior to the experiments, the cells were passaged 1:1 in a concentration of 1 × 10^6 cells/ml.
The genes that contain the drug resistance mutations are excised from the clinical isolates and cloned into the genetic background of HXB2. Thus all tested HIV-1 strains have the same genetic background. […] This strain contains an insertion of two a.a. between codons 68 and 69 of RT as well as an a.a. change at codon 67.
After 5 days of incubation a cellular viability assay was performed as described above. In this case, the amount of formazan reflects the number of cells protected by the drug against killing by the virus and is used as a read out for drug susceptibility.

HIV-1Ba-L [4] = assay: Combination of HIV-1 inhibitors in HIV-1Ba-L infected PBMC (checker board, CalcuSyn); conditions: Human immunodeficiency virus 1, PBMC
Protocol: After 7 days of incubation, p24 antigen in culture supernatant was quantified by ELISA and cellular viability was assessed by a cytotoxicity assay. fa was calculated for each drug combination after p24 quantification. Using the CalcuSyn program, dose-effect curves were plotted for each drug combination, i.e., each dose was plotted against the corresponding fa value. […] CI values were calculated using the mutually nonexclusive assumption.

Protocol for MT2 cells: After 5 days of incubation a cellular viability assay was performed as described above.

CCCCC#CCSc1ccccc1OC(C)=O [APHS, o-(acetoxyphenyl)hept-2-ynyl sulfide]
IC50 (HIV-1Ba-L [1]; Human immunodeficiency virus 1, 168 h, PBMC infected with HIV-1Ba-L, p24 antigen after 7 days, read-out: IC50): 6 µM
inhibition at 30 µM (HIV-1Ba-L [1]; Human immunodeficiency virus 1, 30 µM APHS, PBMC, read-out: inhibit HIV-1Ba-L replication): 80%
CC50 at 168 h [2]: 147 µM
RT activity in the primer extension assay (HIV-1 RT): no inhibition of RT activity
amount of reverse transcription product (HIV-1 RT; 1000 µM APHS, effect probably due to the ethanol in the sample): decreased the amount of reverse transcription product
cDNA formation (HIV-1 RT; APHS 10 to 300 µM): did not affect cDNA formation
effect on FIV replication (FIV UT-113): did not show any effect
cellular viability significantly decreased at concentrations above (HEp-2 cells): above 10 µM
cytotoxicity for HEp-2 cells (HEp-2 cells): not cytotoxic
effect on MHV replication (CPE) (MHV-A59): no effect
CC50 [3]: 374 µM
cytotoxicity for HFF and BHK cells (HFF and BHK cells): not cytotoxic
toxicity for MT2 cells (MT2 cells): did not show any significant toxicity
CC50 at 168 h (in vitro): 105 µM
IC50 (184V): 5 µM
IC50 (HIV-1Ba-L [4]; 168 h, read-out: IC50 Alone APHS, APHS alone, PBMC, HIV-1Ba-L, 7 days, one value per experiment with the named partner drug): 10 to 15 µM
IC50 (HIV-1Ba-L [4]; read-out: IC50 of APHS alone (mean), mean over the combination experiments): 13 µM
IC50 (HIV-1Ba-L [4]; read-out: IC50 of APHS in combination with RTI or PI (mean), mean over the combination experiments): 5 µM
